Test results taken from paper PMC3409115, “Diverse Inhibitor Chemotypes Targeting Trypanosoma cruzi CYP51” (PLoS Neglected Tropical Diseases, 2012).
Like-named read-outs stand apart in the source and are kept apart here.

Assays:
T. cruzi CYP51 = molecular target: T1, T. cruzi CYP51 (Trypanosoma cruzi, UniProt Q7Z1V1); test: HTS spectral-mode binding screen, type II difference spectra scored 0-5
T1 construct: had the first 21 residues upstream of K22 replaced with the fragment MAKKKKK; His6 (C); made in house
T1 sequence (Q7Z1V1 15-481, looked up, natural form): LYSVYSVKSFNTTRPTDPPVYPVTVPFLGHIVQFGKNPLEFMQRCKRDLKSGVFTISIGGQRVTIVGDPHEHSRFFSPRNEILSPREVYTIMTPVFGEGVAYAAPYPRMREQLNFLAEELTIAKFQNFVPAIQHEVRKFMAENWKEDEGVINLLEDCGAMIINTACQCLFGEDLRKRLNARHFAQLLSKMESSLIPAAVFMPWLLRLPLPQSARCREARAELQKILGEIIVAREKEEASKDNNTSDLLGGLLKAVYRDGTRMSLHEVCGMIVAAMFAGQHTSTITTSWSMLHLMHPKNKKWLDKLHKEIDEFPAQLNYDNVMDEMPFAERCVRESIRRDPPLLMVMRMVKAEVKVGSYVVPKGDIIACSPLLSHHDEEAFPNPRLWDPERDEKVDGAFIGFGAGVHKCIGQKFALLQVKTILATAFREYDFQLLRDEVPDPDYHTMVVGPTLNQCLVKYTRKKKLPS

[1] = system: host cell (skeletal myoblasts, bovine embryo skeletal muscle or C2C12); test: Host cell toxicity in the cross-validation assay; assay type: cell-based; conditions: host cells in cross-validation assay, up to 10 µM
Procedure: (§1) Compound cross-validation in T. cruzi infected skeletal myoblasts (bovine embryo skeletal muscle or C2C12 lineage) was performed according to the protocol adapted from Engel and co-authors. Compounds stored as 10 mM stocks in DMSO were freshly diluted immediately prior to use. […] To prepare plates for the assay, skeletal myoblasts cultured in […] flasks were washed once with phosphate buffered saline (PBS) and then incubated with 0.25% trypsin in PBS for 1–3 minutes for detachment. The trypsin solution was removed and myoblasts were released from the flask bottom. Fresh medium was added and cell concentration was determined using a Neubauer hemocytometer. Myoblasts in 50 µl of culture medium were transferred to the clear-bottom wells of black 96-well plates (Greiner Bio-One, #655090) at a density of 1500 cells/well and infected with 50 µl trypomastigote culture at 7500 parasites/well (1∶5 ratio). The cells were allowed to adhere and spread for 24 h in the incubator before the media was removed and 100 µl of fresh medium containing 0, 0.04, 0.12, 0.37, 1.10, 3.30 or 10 µM of test compound was added to each well, followed by 72 h incubation at 37°C in an atmosphere of 5% CO2. Posaconazole was used as a positive control at the same concentrations as the test compounds. The cells were then fixed by adding 100 µl/well of 8% formaldehyde in PBS, resulting in a 4% working concentration of formaldehyde. To stain the nucleus of the host cell and the nucleus and kinetoplast of parasites, cell membranes were first permeabilized by washing once with 100 µl of 0.1% Triton X-100 in PBS, then treated for 1 h with 0.2 µg/ml of the fluorescent DNA dye, 4,6-diamidino-2-phenylindole (DAPI), followed by one wash with PBS. The fixed plates were kept at 4°C and protected from light until images were acquired.
(§2) Plates were allowed to equilibrate to room temperature and images were acquired by the IN Cell Analyzer 2000 (GE Healthcare) with a 20× objective, 5 fields per well, with 350/50 nm and 460/40 nm fluorescent excitation and emission filters. In the absence of drug cytotoxicity, at least 800 cells were imaged and counted per well. The images were processed and analyzed by IN Cell Analyzer Developer 1.6 software. The size parameters used to segment host and parasite organelles were 125 µm^2 for host nucleus, and 1–2 µm^2 for parasite nucleus/kinetoplast. Since DAPI also strongly stains host heterochromatin regions that display as shapes resembling parasites ( Figure 3 ), particles co-localized to host nuclei were excluded from quantification, while parasite aggregates near the host nucleus were counted as infected cells. Numbers of host cells and intracellular amastigotes were determined based on host cell and parasite nucleus and parasite kinetoplast quantification, providing a measure of growth inhibition during the first 72 h of post-infection treatment compared to untreated controls.
^aToxicity was assessed as the highest percentage of host cell growth inhibition caused by compound treatment. Scores are assigned as 1-<20%; 2-21-30%; 3- 31-40%; 4-41-50% and 5->50% growth inhibition.

[2] = system: T. cruzi-infected skeletal myoblasts (intracellular amastigotes); test: Hit cross-validation in T. cruzi-infected mammalian cells (image-based assay); assay type: cell-based, Trypanosoma cruzi
Procedure: Bovine embryo skeletal muscle cells or mouse C2C12 myoblasts (ATCC#CRL-1772) used in the cross-validation assay, were cultivated respectively in RPMI 1640 medium supplemented with 5% horse serum and Dulbecco's Modified Eagle's Medium H-21 containing 4.5 g/l glucose (DMEM H-21) (Cell Culture Facility, UCSF), supplemented with 5% fetal bovine serum (FBS) (Sigma Chemical Co., St. Louis, MO, USA), 25 mM HEPES, 2 mM L-glutamine, 100 U/ml penicillin, 100 µg/ml streptomycin. T. cruzi CAI-72 trypomastigotes were obtained from supernatant of infected cultures 4 to 7 days post-infection. Cultures were maintained at 37°C in an atmosphere of 5% CO2. To harvest parasites, the supernatant of infected cultures containing released trypomastigotes was collected and centrifuged at 600 rpm for 5 min to remove cell debris; the pellet was then discarded and the trypomastigotes remaining in the media were concentrated by spinning the culture tubes at 3300 rpm for 15 minutes. The parasite pellet was re-suspended in 2–5 ml of fresh media. Trypomastigote concentration was determined using a Neubauer hemocytometer.
as §1
as §2, with “cells.” for “cells. Numbers of host cells and intracellular amastigotes were determined based on host cell and parasite nucleus and parasite kinetoplast quantification, providing a measure of growth inhibition during the first 72 h of post-infection treatment compared to untreated controls.”

[3] = type II difference spectra scored 0-5, second highest rated hit compound cluster
[4] = T. cruzi-infected myoblasts, 72 h treatment, read-out: EC50 against T. cruzi parasites in HTS assay used to rank order the hits
[5] = Trypanosoma cruzi, Myoblast, 72 h, T. cruzi-infected myoblasts, 72 h treatment, read-out: EC50 against T. cruzi parasites in HTS assay used to rank order the hits
[6] = spectral mode, four serial dilutions 2 µM to 12.5 µM, 2 µM CYP51
[7] = Trypanosoma cruzi, Myoblast, 72 h, read-out: EC50 against T. cruzi parasites in HTS assay used to rank order the hits

Row | SMILES | HTS binding score (T. cruzi CYP51; [3]) | Toxicity score (highest percentage of host cell growth inhibition) [1] | EC50 [2, 4] [µM] | EC50 [2, 5] [µM] | HTS binding score (T. cruzi CYP51; [6]) | EC50 [2, 7] [µM] | EC50 ([2]; Trypanosoma cruzi, Myoblast, 72 h, read-out: EC50 averaged from two independent cross-validation assays for individually repurchased hits) [µM]
1 | CC1=C(C(=O)OC2CCCC2)C(c2ccncc2)C2=C(O)CC(C)(C)CC2=N1 (centres unmarked) [Compound 2] | 4 | 4 (4-41-50%) | 0.306 | 0.31 | – | – | –
2 | N#CC1=C(N)OC2=C(C(=O)CC(c3ccccc3)C2)C1c1cccnc1 (centres unmarked) [Compound 7] | 3 | 4 (4-41-50%) | 0.667 | 0.67 | 3 | – | –
3 | OC(/C=C/c1ccccc1)(Cn1ccnc1)c1ccncc1 (centres unmarked) [Compound 12] | – | 1 (1-<20%) | – | – | 1 | 1.1 | –
4 | Cc1ccc(CNC(=O)C(=O)NCC(c2cccnc2)N2CCN(Cc3ccccc3)CC2)cc1 (centres unmarked) [Compound 14] | – | 4 (4-41-50%) | – | – | 2 | 1.67 | –
5 | COc1ccc(CNc2nc3ccccc3c3nc(-c4ccncc4)nn23)cc1 [Compound 15] | – | 3 (3- 31-40%) | – | – | 5 | 1.93 | 1.93
6 | Brc1ccc(-c2csc(-c3ccncc3)n2)cc1 [Compound 18] | – | 1 (1-<20%) | – | – | 3 | 2.38 | –
7 | COC(=O)c1ccc(-c2ccncc2)s1 [Compound 21] | – | 2 (2-21-30%) | – | – | 4 | 2.74 | –
8 | Cc1ccc(NC(=O)c2sc3nc(-c4ccncc4)ccc3c2N)cc1Cl [Compound 22] | – | 2 (2-21-30%) | – | – | 2 | 2.86 | –
9 | OC(/C=C/c1cccc(C(F)(F)F)c1)(Cn1ccnc1)c1cccnc1 (centres unmarked) [Compound 23] | – | 1 (1-<20%) | – | – | 1 | 2.89 | –
10 | c1ccc(CC(NCc2ccncc2)c2ccccc2)cc1 (centres unmarked) [Compound 27] | – | 1 (1-<20%) | – | – | 5 | 4.82 | –
11 | CCOC(=O)C1=C(C)N(C)C(C)=C(C(=O)OCC)C1c1ccncc1 [Compound 29] | – | 1 (1-<20%) | – | – | 5 | 5.18 | –
12 | CC(C)=CCCC1=CCC2(COC(c3cccnc3)OC2)C(C)C1 (centres unmarked) [Compound 31] | – | 1 (1-<20%) | – | – | 2 | 6.39 | –
13 | O=C(c1ccc(Cl)cc1Cl)C(c1cccnc1)C(O)C(Cl)(Cl)Cl (centres unmarked) [Compound 34] | – | 2 (2-21-30%) | – | – | 5 | 6.87 | –
14 | c1ccc2c(c1)-c1ccccc1C2n1ccnc1 [Compound 36] | – | 3 (3- 31-40%) | – | – | 1 | 7.24 | –
15 | Cn1c(SCc2nc(-c3ccc(Cl)cc3)no2)nnc1-c1ccncc1 [Compound 40] | – | 1 (1-<20%) | – | – | 5 | 7.67 | –
16 | O=P(Nc1cccnc1)(Oc1ccccc1Cl)Oc1ccccc1Cl [Compound 41] | – | 1 (1-<20%) | – | – | 5 | 7.73 | –
17 | CCc1ccc(-c2cc3c(=O)n(CC(=O)NCc4cccnc4)nc(C)n3n2)cc1 [Compound 42] | – | 3 (3- 31-40%) | – | – | 2 | 7.75 | –
18 | Cc1ccc(OCCCn2ccnc2)c(C)c1 [Compound 45] | – | 3 (3- 31-40%) | – | 8.01 | 5 | – | –
19 | CN(C)C(C/N=C(\S)NCCc1ccccc1)c1cccnc1 (centres unmarked) [Compound 46] | – | 1 (1-<20%) | – | – | 1 | 8.18 | –
20 | OC(c1ccccc1)(c1ccccc1)c1c[nH]cn1 [Compound 47] | – | 2 (2-21-30%) | – | – | 3 | 8.22 | –
21 | N#C/C(=C\C=C\c1ccccc1)C(=O)NCc1cccnc1 [Compound 49] | – | 1 (1-<20%) | – | – | 3 | 8.26 | –
22 | CCCCNC(=O)c1cc(-c2ccncc2)nc2ccccc12 [Compound 50] | – | 4 (4-41-50%) | – | – | 5 | 8.4 | –
23 | CCOC(=O)C1=C(N)Oc2ccc3ccccc3c2C1c1cccnc1 (centres unmarked) [Compound 51] | 2 | 1 (1-<20%) | – | 8.58 | 2 | – | –
24 | COC(=O)C1=C(C)N(Cc2cccnc2)C(=O)/C1=C\c1ccccc1OCc1ccccc1 [Compound 53] | – | 1 (1-<20%) | – | – | 3 | 9.06 | –
25 | Cc1ccc(OCC(=O)ONC(=N)c2cccnc2)c(Br)c1 [Compound 54] | – | 1 (1-<20%) | – | – | 3 | 9.48 | –
26 | O=C(/C=C/c1cccs1)c1ccncc1 [Compound 56] | – | 3 (3- 31-40%) | – | – | 3 | 9.62 | –
